These results are taken from PubChem BioAssay AID1996.

In brackets after ≈: the same amount, converted by molar mass. Some results are limits rather than exact numbers.

What is called kinetic solubility is solubility judged after dilution from a stock solution rather than from solid.

For the series the following is noted: buffer; pH 7.4; 200.0 µM.
In the case of `COCCCNC1CS(=O)(=O)CC1O.Cl` (stereo not given), the kinetic solubility was > 39 µg/mL.
Consider `O=S(=O)(c1ccc(F)cc1)N1CN2CCN(C2)C1`, for which the kinetic solubility is > 40.7 µg/mL.
On to `CCN(CC)S(=O)(=O)c1ccc(N2CCOCC2)c(NC(=O)c2sccc2C)c1`, for which the solubility (kinetic) amounted to 11.4 µg/mL (≈ 26.1 µM).
For `O=C(COC(=O)c1cc(S(=O)(=O)N2CCCC2)ccc1O)Nc1ccc(F)cc1F` the value was > 66.1 µg/mL.
With `Cc1ccc(NCC(=O)N/N=C/c2ccncc2)cc1` the figure was > 40.2 µg/mL.
`O=C(CSc1cccc2cccnc12)Nc1ccccc1F` displayed a kinetic solubility of 7.3 µg/mL (≈ 23.4 µM).
For `O=C(Nc1ccc([N+](=O)[O-])cc1)C1COc2ccccc2O1` (stereo not given) the value was 0.9 µg/mL (≈ 3 µM).
For `O=S(=O)(c1cccc2cccnc12)N1CCCc2ccccc21` the value was 1.3 µg/mL (≈ 4.01 µM); for `NC(=O)C1CCN(C(=O)CCC(=O)c2cccs2)CC1`, > 44.2 µg/mL; for `Cc1cc2c(Nc3cccc(O)c3)ncnc2s1.Cl`, 41.7 µg/mL.
With `O=C(CCNC(=O)c1ccc(Br)cc1)NCc1ccco1` the figure was > 52.7 µg/mL.
For `O=[N+]([O-])c1ccccc1S(=O)(=O)c1ccccc1`, the solubility (kinetic) was > 39.5 µg/mL.
For `O=C(CCCNC(=O)c1ccc(Cl)cc1)NCc1ccc(F)cc1` the value was 4.1 µg/mL (≈ 11.8 µM); for `CN(C)c1ccc(/C=C/C(=O)c2ccc3c(c2)OCO3)cc1`, 2.9 µg/mL (≈ 9.82 µM).
For `NC1=NC(=O)C(Cc2ccccc2)S1` (stereo not given) the value was > 30.9 µg/mL.
`CCOc1ccc(NC(=O)c2nsc(Cl)c2Cl)cc1` came in with a solubility (kinetic) of 1.3 µg/mL (≈ 4.1 µM).
Consider `CCOc1ccc(CNC(=S)Nc2ccccc2)cc1Cl`, for which the kinetic solubility amounted to 1.6 µg/mL (≈ 4.99 µM).
For `COC(=O)c1cc(C(=O)OC)cc(-n2c(C)cc(C=O)c2C)c1` the value was 35.8 µg/mL (≈ 114 µM); for `CN1CCN(C(=O)c2cc(Br)cn2C)CC1`, > 42.9 µg/mL.
For `O=C(NCc1ccc(-n2cccc2)cc1)c1cccc(F)c1` the value was 1.7 µg/mL (≈ 5.78 µM); for `CCOC(=O)c1c(-c2cccc(N)c2)cn2ccccc12`, 35.1 µg/mL (≈ 125 µM).
For `Cc1cc(C)nc(NC(=S)Nc2ccccc2)n1` the value was 0.3 µg/mL (≈ 1.16 µM).
For `O=c1[nH]c2ccsc2c(=O)n1CCO`, the solubility (kinetic) is > 31.8 µg/mL.
For `CCS(=O)(=O)c1ccc(O)c(NC(=O)/C=C/c2ccc(Cl)cc2)c1` the value was 3.9 µg/mL (≈ 10.7 µM); for `O=C(CSc1ccccn1)Nc1ccc(Cl)c([N+](=O)[O-])c1`, 1.7 µg/mL (≈ 5.25 µM).
With `CCN(CC)CC(=O)Nc1sc(C)cc1C(=O)c1ccccc1` the figure was 2.5 µg/mL (≈ 7.57 µM); with `Cc1[nH]c2ccccc2c1/C=N/NC(=O)CNC(=O)c1ccco1`, > 48.7 µg/mL; with `Oc1ccc(CN2CCN(c3ncccn3)CC2)cc1`, 34.2 µg/mL (≈ 127 µM).
With `Cc1ccc(C(=O)OCC(=O)NC2CCCC2)cc1` the figure was 22.5 µg/mL (≈ 86.1 µM).
`c1ccc(Oc2cccc3cccnc23)nc1` displayed a kinetic solubility of 32.5 µg/mL (≈ 146 µM). This solubility kinetic and that of the molecule before are within 1.5-fold of each other.
With `CCOc1ccc(S(=O)(=O)N=C(c2ccccc2)N2CCOCC2)cc1` the figure was > 56.2 µg/mL; with `COC(=O)CN1C(=O)COc2ccc(S(=O)(=O)N3CCCCCC3)cc21`, 52.4 µg/mL (≈ 137 µM).
For `OCCC1CN(Cc2cccnc2)CCN1CCc1ccccc1` (stereo not given) the value was 42.4 µg/mL (≈ 130 µM); for `COc1ccc(C(=O)NCC2(c3ccccc3)CCCC2)c(OC)c1`, 3.8 µg/mL (≈ 11.2 µM).
For `COc1cccc(OC)c1C(=O)Nc1ccncc1` the value was 19 µg/mL (≈ 73.6 µM); for `COc1ccc(OC)c(NC(=O)NCc2cccnc2)c1`, > 43.1 µg/mL; for `O=C(O)c1cccc(N2C(=O)CSC2c2ccccc2)c1` (stereo not given), > 44.9 µg/mL.
Molecule `O=C(Nc1cc2c3c(c1)CC(=O)N3CCC2)c1cccc(F)c1` gave a kinetic solubility of 10.5 µg/mL (≈ 33.8 µM).
For `CN(Cc1nc(CCc2ccccc2)no1)Cc1cccs1` the value was 18.4 µg/mL (≈ 58.7 µM); for `COn1c(=O)c(-c2ccc(C)cc2)[n+]([O-])c2ccccc21`, > 42.3 µg/mL.
For `Cn1cccc1/C=N/NC(=O)Cc1cccs1` the value was > 37.1 µg/mL; for `COc1ccc(-c2cc(C(=O)N3CCCC3)no2)cc1`, 30.4 µg/mL (≈ 112 µM); for `Cl.O=C(NCCN1CCCC1)C(c1ccccc1)c1ccccc1`, 48.9 µg/mL.
With `N#Cc1ccc(NC(=O)CN2CCCCCC2)cc1Cl` the figure was 26.4 µg/mL (≈ 90.5 µM).
Molecule `COc1ccc(C(=O)CCC(=O)NC2=NCCS2)cc1` yielded a solubility (kinetic) of 14.6 µg/mL (≈ 49.9 µM).
With `CCOc1ccc(C(C)=O)cc1CN1C(=O)NC(C)(C2CC2)C1=O` (stereo not given) the figure was 41.3 µg/mL (≈ 125 µM); with `C=CCn1cc(C(=O)OCC)c(=O)c2ccc(F)cc21`, 40.2 µg/mL (≈ 146 µM); with `O=C1c2ccsc2SCCN1Cc1ccc(F)cc1`, 40.5 µg/mL (≈ 138 µM).
For the molecule `O=C1NC(=O)C(=Cc2ccc(Sc3ccccc3)o2)C(=O)N1`, the solubility (kinetic) came out at 40.5 µg/mL (≈ 129 µM).
`CCCCNC(=NCc1cccc(C(F)(F)F)c1)Nc1ccccc1` displayed a solubility (kinetic) of 45.7 µg/mL (≈ 131 µM).
On to `CCC(C)NC(=O)C1CCC(=O)N1CCc1ccccc1` (stereo not given), for which the kinetic solubility is > 43.3 µg/mL.
With `O=C(NCCCCc1ccccc1)Nc1cccc(F)c1` the figure was 8.2 µg/mL (≈ 28.6 µM).
For `CCCCOC(=O)c1ccc(NC(=O)C(=O)NCc2ccccn2)cc1` the value was 0.8 µg/mL (≈ 2.25 µM).
With `Nc1c(Br)c(=O)[nH]c(=O)n1-c1ccc(F)cc1` the figure was 25.3 µg/mL (≈ 84.3 µM); with `O=C(NC12CC3CC(CC(C3)C1)C2)c1ccc(Br)o1`, 9.7 µg/mL (≈ 29.9 µM); with `O=C(Nc1cccc(S(=O)(=O)N2CCOCC2)c1)C12CC3CC(CC(C3)C1)C2`, 2.2 µg/mL (≈ 5.44 µM).
Regarding `Cc1ccc(CN2C(=O)CSC2c2cccnc2)cc1` (stereo not given), the kinetic solubility is > 42.7 µg/mL.
For `C/C(=N\OCc1cccc(C(=O)O)c1)c1ccc(Cl)cc1` the value was > 45.6 µg/mL; for `NC(=O)c1ccccc1NC(=O)CN1CCCCCC1`, > 41.3 µg/mL; for `CCC(C)(C)NC(=O)CCCSc1nc2ccccc2[nH]1`, 28.7 µg/mL (≈ 94 µM).
With `COc1ccc(S(=O)(=O)N2CCN(CC(=O)NC(Cc3ccccc3)C(C)=O)CC2)cc1` (stereo not given) the figure was > 68.9 µg/mL; with `CC(C)(C)n1cnc2cc(NC(=O)c3cccs3)ccc21`, > 44.9 µg/mL; with `Brc1ccc2c(c1)[C@H]1OCC[C@H]1[C@@H](c1cccs1)N2`, 1.4 µg/mL (≈ 4.16 µM).
For `COc1ccccc1N1C(N)=NC(N)=NC12CCCCC2.Cl` the value was > 48.6 µg/mL; for `COc1ccccc1CNC(=O)COC(=O)C1CC1`, > 39.5 µg/mL.
As for `Cc1ccc(OCCNC(=O)c2ccc3c(c2)OCO3)cc1`, the kinetic solubility is 14.4 µg/mL (≈ 48.1 µM).
As to `Cc1ccc2cccc(OCc3ccc(Br)cc3)c2n1`, the solubility (kinetic) came out at 0.9 µg/mL (≈ 2.74 µM).
With `CC(NC(=O)CCNC(=O)c1ccc(C(C)(C)C)cc1)c1ccccc1` (stereo not given) the figure was 17.1 µg/mL (≈ 48.5 µM).
In turn, `CCc1ccc(S(=O)(=O)Nc2ccc(C)c(NS(C)(=O)=O)c2)cc1` showed a solubility (kinetic) of 48.6 µg/mL (≈ 132 µM).
Regarding `CC(C)Oc1ccc(N2CC(C(=O)NC3=NCCS3)CC2=O)cc1` (stereo not given), the solubility (kinetic) was > 52.1 µg/mL.
For `CO[C@H]1O[C@H](C)[C@@H](O)C[C@H]1NC(=O)OCc1ccccc1` the value was > 44.3 µg/mL; for `CC(=O)N(C)c1ccc(NC(=O)C(c2ccccc2)c2ccccc2)cc1`, 40.2 µg/mL (≈ 112 µM); for `CCOc1ccc2oc(C(=O)NCC3CCCO3)c(C)c2c1` (stereo not given), 39.6 µg/mL (≈ 131 µM).
With `CCN1CCCC1Cn1cnc2c([nH]c3ccc(OC)cc32)c1=O` (stereo not given) the figure was > 49 µg/mL; with `CC(=O)c1c(COC(=O)c2ccc(C)cc2)nc2ccccc2[n+]1[O-]`, 2.7 µg/mL (≈ 8.03 µM).
For `O=C(c1ccc2ccccc2c1)N1CCCCC1` the value was > 35.9 µg/mL; for `O=C(NCCOc1ccccc1F)Nc1ccc(Br)cc1`, 2.1 µg/mL (≈ 5.95 µM); for `CN(Cc1ccc2ccccc2c1)C(=O)c1ccc(C(F)(F)F)cc1`, 4.6 µg/mL (≈ 13.4 µM).
In turn, `NC(=S)Nc1ccc(Cl)cc1Cl` displayed a solubility (kinetic) of 32.9 µg/mL (≈ 149 µM).
With `Cc1ccsc1C(=O)Nc1nccs1` the figure was > 33.6 µg/mL; with `CCCn1c(SCCC(=O)O)nc2ccccc21`, > 39.7 µg/mL; with `N=c1oc2ccccc2cc1C(=O)Nc1ccccc1`, 0.6 µg/mL (≈ 2.27 µM).
With `CCOc1ncccc1C(=O)Nc1cc(S(=O)(=O)N(CC)CC)ccc1N1CCOCC1` the figure was 6.5 µg/mL (≈ 14.1 µM).
For `O=C(CCC1CCN(Cc2ccccc2O)CC1)NC1CC1` the value was 42.6 µg/mL (≈ 141 µM).
`CCOC(=O)C1(CCOC)CCN(C(=O)c2sccc2C)CC1`: the solubility (kinetic) is > 50.9 µg/mL.
For `Cc1ccc(OCCN2C(=O)C(=O)c3cc(C)ccc32)cc1` the value was 4.1 µg/mL (≈ 13.9 µM).
With `Cc1cccc2c(=O)cc(C(F)(F)F)[nH]c12` the figure was > 34.1 µg/mL.
As to `NC(=O)COC(=O)CC(c1ccccc1)c1ccccc1`, the kinetic solubility is > 42.5 µg/mL.
With `Cc1occc1C(=O)N1CCCC(Nc2ccc(F)c(F)c2)C1` (stereo not given) the figure was 46.6 µg/mL (≈ 145 µM); with `O=C(NCCO)/C(=C/c1cccc([N+](=O)[O-])c1)NC(=O)c1ccco1`, > 51.8 µg/mL; with `COc1ccccc1CNC(=O)CS(=O)(=O)Cc1ccccc1`, 41.4 µg/mL (≈ 124 µM).
With `Nc1nc(SCC(=O)Nc2cccnc2Cl)n[nH]1` the figure was > 42.7 µg/mL.
With `O=C(NCCCc1nc2ccccc2[nH]1)c1ccc(F)cc1` the figure was > 44.6 µg/mL; with `Cc1cc(C)n2nc(-c3ccco3)nc2n1`, > 32.1 µg/mL; with `CC(=O)N1CCN(C(=O)c2ccc3c(c2)OCO3)CC1`, > 41.4 µg/mL.
`CN(C)C(=O)Oc1cccc(NC(=O)c2ccccc2C(F)(F)F)c1` returned a kinetic solubility of 37.9 µg/mL (≈ 108 µM).
In the case of `Cc1cc(Cl)ccc1OC(C)C(=O)NCCCn1ccnc1` (stereo not given), the solubility (kinetic) was > 48.3 µg/mL.
With `N#CC1CN(Cc2ccccc2)CN(Cc2ccccc2)C1` the figure was 32.9 µg/mL (≈ 113 µM); with `CC(C)(C)NC(=O)NC(=O)CN1CC=C(c2ccccc2)CC1`, 38.9 µg/mL (≈ 123 µM); with `COc1ccccc1NS(=O)(=O)c1cc(C(=O)N2CCCCCC2)ccc1C`, 9.6 µg/mL (≈ 23.8 µM).
With `COCc1cc(C)nc(OC)c1C(N)=O` the figure was 23.9 µg/mL (≈ 114 µM); with `COc1ccc(OC)c(NC(=O)C2=C(C)NC(=O)NC2c2cccs2)c1` (stereo not given), 25.3 µg/mL (≈ 67.7 µM).
As for `COc1ccccc1N1Cc2ccc(OC)c(OC)c2C1=O`, the kinetic solubility is > 44.9 µg/mL.
For `CC1(CCc2ccccc2)NC(=O)N(CC(=O)O)C1=O` (stereo not given) the value was 16.6 µg/mL (≈ 60.1 µM); for `COc1ccc(NC(=O)c2cc(-c3cccs3)on2)cc1`, 0.3 µg/mL (≈ 0.999 µM).
